Experimental data published in PubChem BioAssay (NCI).
“And” between values parts separate entries of the source, which are not always exact repeats. Equal values may be shown once.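 In this assay, cells in 96-well plates receive the compound at five concentrations for 48 hours. Endpoints are linearly interpolated between the surrounding concentrations. GI50 is the concentration that inhibits growth by half. TGI: concentration producing complete growth inhibition.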

Columns and labels:
Assay in all cases: NCI-60 cell line screen, 48 h
CAKI-1 renal = test system: CAKI-1 renal
HT29 colon = test system: HT29 colon
NCI/ADR-RES ovarian = test system: NCI/ADR-RES ovarian
NCI-H226 lung = test system: NCI-H226 lung
786-0 renal = test system: 786-0 renal
SF-295 CNS = test system: SF-295 CNS
OVCAR-4 ovarian = test system: OVCAR-4 ovarian
SN12C renal = test system: SN12C renal
NCI-H460 lung = test system: NCI-H460 lung
PC-3 prostate = test system: PC-3 prostate
LOX IMVI melanoma = test system: LOX IMVI melanoma
RPMI-8226 leukemia = test system: RPMI-8226 leukemia
MALME-3M melanoma = test system: MALME-3M melanoma
K-562 leukemia = test system: K-562 leukemia
SNB-19 CNS = test system: SNB-19 CNS
TK-10 renal = test system: TK-10 renal
ACHN renal = test system: ACHN renal
HOP-62 NSCLC = test system: HOP-62 NSCLC
CCRF-CEM leukemia = test system: CCRF-CEM leukemia
UO-31 renal = test system: UO-31 renal
KM12 colon = test system: KM12 colon
OVCAR-5 ovarian = test system: OVCAR-5 ovarian
IGROV1 ovarian = test system: IGROV1 ovarian
HL-60(TB) leukemia = test system: HL-60(TB) leukemia
M14 melanoma = test system: M14 melanoma
UACC-257 melanoma = test system: UACC-257 melanoma
COLO 205 colon = test system: COLO 205 colon
SF-539 CNS = test system: SF-539 CNS
SW-620 colon = test system: SW-620 colon
NCI-H23 lung = test system: NCI-H23 lung
MOLT-4 leukemia = test system: MOLT-4 leukemia
SK-MEL-2 melanoma = test system: SK-MEL-2 melanoma
DU-145 prostate = test system: DU-145 prostate
SF-268 CNS = test system: SF-268 CNS
OVCAR-3 ovarian = test system: OVCAR-3 ovarian
SK-MEL-5 melanoma = test system: SK-MEL-5 melanoma
BT-549 breast = test system: BT-549 breast
SK-MEL-28 melanoma = test system: SK-MEL-28 melanoma
HS 578T breast = test system: HS 578T breast
SK-OV-3 ovarian = test system: SK-OV-3 ovarian
HCT-15 colon = test system: HCT-15 colon
EKVX NSCLC = test system: EKVX NSCLC
U251 CNS = test system: U251 CNS
SNB-75 CNS = test system: SNB-75 CNS
HCT-116 colon = test system: HCT-116 colon
HOP-92 NSCLC = test system: HOP-92 NSCLC
MDA-MB-435 = test system: MDA-MB-435
UACC-62 melanoma = test system: UACC-62 melanoma
A498 renal = test system: A498 renal
OVCAR-8 ovarian = test system: OVCAR-8 ovarian
RXF 393 renal = test system: RXF 393 renal
A549 NSCLC = test system: A549 NSCLC
MDA-MB-231 breast = test system: MDA-MB-231 breast
HCC-2998 colon = test system: HCC-2998 colon
MCF7 breast = test system: MCF7 breast

CC[C@]12CN3CCc4c([nH]c5ccccc45)[C@@](C(=O)OC)(c4cc5c(cc4OC)N(C)[C@H]4[C@@](O)(C(=O)OC)[C@H](OC(C)=O)[C@]6(CC)C=CCN7CC[C@]54[C@@H]76)CC(C3)[C@H]1O2 (stereo not given in full)
GI50 (CAKI-1 renal): 3720 nM
TGI (CAKI-1 renal): > 100000 nM
GI50 (HT29 colon): 131 nM
TGI (HT29 colon): > 73500 nM
GI50 (NCI/ADR-RES ovarian): 11600 nM
TGI (NCI/ADR-RES ovarian): > 100000 nM
GI50 (NCI-H226 lung): 462 nM
TGI (NCI-H226 lung): > 50000 nM
GI50 (786-0 renal): 1300 nM
TGI (786-0 renal): > 100000 nM
TGI (SF-295 CNS): > 12300 nM
GI50 (OVCAR-4 ovarian): 327 nM
TGI (OVCAR-4 ovarian): > 100000 nM
GI50 (SN12C renal): 408 nM
TGI (SN12C renal): 15400 nM and > 50000 nM
GI50 (NCI-H460 lung): 167 nM
TGI (NCI-H460 lung): 10900 nM and > 27400 nM
GI50 (PC-3 prostate): 222 nM
TGI (PC-3 prostate): > 100000 nM
GI50 (LOX IMVI melanoma): 145 nM
TGI (LOX IMVI melanoma): > 100000 nM
GI50 (RPMI-8226 leukemia): 138 nM
TGI (RPMI-8226 leukemia): > 100000 nM
GI50 (MALME-3M melanoma): 63.9 nM
TGI (MALME-3M melanoma): > 50000 nM
GI50 (K-562 leukemia): 49.9 nM
TGI (K-562 leukemia): > 50000 nM
GI50 (SNB-19 CNS): 214 nM
TGI (SNB-19 CNS): > 100000 nM
GI50 (TK-10 renal): 562 nM
TGI (TK-10 renal): > 100000 nM
GI50 (ACHN renal): 2140 nM
TGI (ACHN renal): > 100000 nM
GI50 (HOP-62 NSCLC): 121 nM
TGI (HOP-62 NSCLC): 26900 nM
GI50 (CCRF-CEM leukemia): 116 nM
TGI (CCRF-CEM leukemia): > 50000 nM
GI50 (UO-31 renal): 1830 nM
TGI (UO-31 renal): > 88500 nM
GI50 (KM12 colon): 105 nM
GI50 (OVCAR-5 ovarian): 1190 nM
TGI (OVCAR-5 ovarian): > 100000 nM
GI50 (IGROV1 ovarian): 154 nM
TGI (IGROV1 ovarian): > 100000 nM
GI50 (HL-60(TB) leukemia): 88 nM
GI50 (M14 melanoma): 239 nM
TGI (M14 melanoma): 25100 nM
GI50 (UACC-257 melanoma): 161 nM
TGI (UACC-257 melanoma): > 100000 nM
GI50 (COLO 205 colon): 92 nM
TGI (COLO 205 colon): 1030 nM and 387 nM
GI50 (SF-539 CNS): 128 nM
TGI (SF-539 CNS): 1800 nM and 9390 nM
GI50 (SW-620 colon): 155 nM
TGI (SW-620 colon): > 100000 nM
GI50 (NCI-H23 lung): 205 nM
TGI (NCI-H23 lung): > 68100 nM
GI50 (MOLT-4 leukemia): 236 nM
TGI (MOLT-4 leukemia): > 100000 nM
GI50 (SK-MEL-2 melanoma): 43.4 nM
GI50 (DU-145 prostate): 121 nM
GI50 (SF-268 CNS): 226 nM
TGI (SF-268 CNS): > 68100 nM
GI50 (OVCAR-3 ovarian): 44.5 nM
GI50 (SK-MEL-5 melanoma): 88.8 nM
TGI (SK-MEL-5 melanoma): 887 nM
GI50 (BT-549 breast): 343 nM
TGI (SK-MEL-28 melanoma): 93100 nM
TGI (HS 578T breast): 72300 nM
TGI (SK-OV-3 ovarian): > 100000 nM
GI50 (HCT-15 colon): 2920 nM
TGI (HCT-15 colon): 9430 nM and > 28100 nM
GI50 (EKVX NSCLC): 256 nM
TGI (EKVX NSCLC): > 100000 nM
GI50 (U251 CNS): 137 nM
TGI (U251 CNS): 34000 nM and > 50000 nM
TGI (SNB-75 CNS): > 100000 nM
GI50 (HCT-116 colon): 147 nM
TGI (HCT-116 colon): > 100000 nM
GI50 (HOP-92 NSCLC): 1290 nM
TGI (HOP-92 NSCLC): > 100000 nM
GI50 (MDA-MB-435): 16.1 nM
TGI (MDA-MB-435): 25.2 nM and 87.8 nM
GI50 (UACC-62 melanoma): 224 nM
TGI (UACC-62 melanoma): 76900 nM and > 50000 nM
GI50 (A498 renal): 241 nM
GI50 (OVCAR-8 ovarian): 273 nM
TGI (OVCAR-8 ovarian): > 100000 nM
TGI (RXF 393 renal): > 100000 nM
GI50 (A549 NSCLC): 599 nM
TGI (A549 NSCLC): > 100000 nM
TGI (MDA-MB-231 breast): 7020 nM and > 11000 nM
GI50 (HCC-2998 colon): 226 nM
GI50 (MCF7 breast): 18.1 nM
TGI (MCF7 breast): > 33900 nM
